Data on seven compounds can be found in ChEMBL document CHEMBL5233287, “In Vitro Hypoglycemic Diterpenoids from the Roots of Croton yunnanensis” (J Nat Prod, 2023).

Activity calls are given as the source filed them. No cut-off for these calls is given here.

Assay [1] has as its system 3T3-L1. Kind of assay: Hypoglycemic activity in insulin-resistant mouse 3T3-L1 cells assessed as increase in 2-deoxyglucose uptake treated with compound for 10 mins followed by 2-deoxyglucose challenge for 30 mins by liquid scintillation counting analysis. Type of assay: functional, cell-based. The settings on record: time 40.0 min.
The test system of assay [2] is 3T3-L1. Kind of assay: Insulin sensitizing activity in mouse 3T3-L1 cells assessed as increase in 2-deoxyglucose uptake at 5 to 20 uM treated with compound and insulin for 10 mins followed by 2-deoxyglucose challenge for 30 mins by liquid scintillation counting analysis. The note with it: dose 5-20 µM, time 40.0 min. Type of assay: functional, cell-based.

Consider `COC(=O)C1=CCC[C@H]2[C@@]13CC[C@@H](C)[C@]21C[C@@H](C2=C[C@@H](OC)OC2=O)O[C@@H]1OC3=O`, for which the result in assay [1] was Active.

For `COC(=O)C1=CCC[C@@H]2[C@]34C[C@@H](C5=CC(=O)O[C@H]5OC)O[C@@H]3O[C@]12CC[C@H]4C`, the result in assay [2] and in assay [1] was Active.

As for `COC(=O)C1=CCC[C@@H]2[C@]34C[C@@H](C5=C[C@@H](OC)OC5=O)O[C@@H]3O[C@]12CC[C@H]4C`, the result in assay [1] was Active.

`C=C1CC[C@]23[C@@H](OC(=O)c4ccccc4)O[C@H]4O[C@H](c5ccoc5)C[C@]14[C@H]2CCC(=O)[C@@]3(O)C(=O)OC`: the result in assay [2] and in assay [1] was Active.

With `COC(=O)[C@H]1C=CC[C@H]2[C@@]13CC[C@@H](C)[C@]21C[C@@H](C2=CC(=O)O[C@H]2OC)O[C@@H]1O3`, the outcome in assay [1] was Active.

Regarding `COC(=O)C1=CCC[C@@H]2[C@]34C[C@@H](c5ccoc5)O[C@@H]3O[C@]12CC[C@H]4C`, the result in assay [1] was Active.

In the case of `COC(=O)C1=CCC[C@H]2[C@@]13CC[C@@H](C)[C@]21C[C@@H](C2=CC(=O)O[C@H]2OC)O[C@@H]1O[C@@H]3OC`, in assay [1], the result was Active.
